According to patent US8088930B2, “Benzimidazole derivatives” (Hoffmann-La Roche Inc., priority 2008, dated 2012):

Target: T1, FXR ligand binding domain (GST-FXR LBD fusion protein, human FXR aa 193-473) (Homo sapiens, UniProt Q96RI1)
T1 construct: fused on or other part: Glutathione-S-transferase (GST) fused N-terminally to the FXR LBD, used to capture the protein on glutathione SPA beads
T1 sequence (Q96RI1 211-486 limits assumed): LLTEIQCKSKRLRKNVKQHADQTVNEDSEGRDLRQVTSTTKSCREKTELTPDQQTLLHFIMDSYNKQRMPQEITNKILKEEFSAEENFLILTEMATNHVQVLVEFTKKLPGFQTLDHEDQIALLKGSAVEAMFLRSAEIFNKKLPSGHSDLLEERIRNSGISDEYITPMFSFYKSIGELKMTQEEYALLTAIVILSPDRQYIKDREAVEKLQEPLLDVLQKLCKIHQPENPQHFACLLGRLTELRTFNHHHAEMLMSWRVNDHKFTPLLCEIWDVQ
Test: Radioligand binding assay (scintillation proximity, radioligand displacement)
Conditions: 40 nM GST-FXR LBD on SPA beads, test compound 6×10^−9 M to 2.5×10^−5 M, read-out: h-IC50 Binding
Method: The following tests were carried out in order to determine the activity of the compounds of formula (I).
To accomplish this, the portions of the sequences encoding the FXR LBD were amplified by polymerase chain reaction (PCR) from a full-length clone by PCR and then subcloned into the plasmid vectors. The final clone was verified by DNA sequence analysis.
The induction, expression, and subsequent purification of GST-LBD fusion protein was performed in E. coli strain BL21(pLysS) cells by standard methods (Current Protocols in Molecular Biology, Wiley Press, ed. Ausubel et al.).
Radioligand Binding Assay
Binding of test substances to the FXR ligand binding domain was assessed in a radioligand displacement assay. The assay was performed in a buffer consisting of 50 mM Hepes, pH 7.4, 10 mM NaCl, 5 mM MgCl2, 0.01% CHAPS. For each reaction well in a 96-well plate, 40 nM of GST-FXR LBD fusion protein was bound to 10 μg glutathione yttrium silicate SPA beads (Pharmacia Amersham) in a final volume of 50 μl by shaking. A radioligand (e.g., 20 nM of 2,N-dicyclohexyl-2-[2-(2,4 dimethoxy-phenyl)-benzoimidazol-1-yl]-acetamide) and test compounds were added, and scintillation proximity counting was performed. All binding assays were performed in 96-well plates and the amount of bound ligand was measured on a Packard TopCount using OptiPlates (Packard).

Point of comparison: `Fc1cc2nc(-c3ccc(Cl)cc3)n(C(COc3ccccc3)C3CCCCC3)c2cc1F` (stereo not shown) [Example 38, 2-(4-Chloro-phenyl)-1-(1-cyclohexyl-2-phenoxy-ethyl)-5,6-difluoro-1H-benzoimidazole], IC50 100 nM. Against it:
- Fc1cc2nc(-c3ccc(Cl)cc3)n(C(COc3ccc(-c4nnn[nH]4)cc3F)C3CCCCC3)c2cc1F (single isomer, unassigned; (-)) [Example 81, (−)-2-(4-Chloro-phenyl)-1-{1-cyclohexyl-2-[2-fluoro-4-(1H-tetrazol-5-yl)-phenoxy]-ethyl}-5,6-difluoro-1H-benzoimidazole] — 10-fold lower, 10 nM
- Cc1cc(-c2nnn[nH]2)cc(C)c1OCC(C1CCCCC1)n1c(-c2ccc(Cl)cc2)nc2cc(F)c(F)cc21 (single isomer, unassigned; (-)) [Example 71, (−)-2-(4-Chloro-phenyl)-1-{1-cyclohexyl-2-[2,6-dimethyl-4-(1H-tetrazol-5-yl)-phenoxy]-ethyl}-5,6-difluoro-1H-benzoimidazole] — 1.7-fold lower, 60 nM
- CC(C)(Oc1ccc(OCC(C2CCCCC2)n2c(-c3ccc(Cl)cc3)nc3cc(F)c(F)cc32)c(F)c1)C(=O)O (stereo not shown) [Example 94, 2-(4-{2-[2-(4-Chloro-phenyl)-5,6-difluoro-benzoimidazol-1-yl]-2-cyclohexyl-ethoxy}-3-fluoro-phenoxy)-2-methyl-propionic acid] — the same, 100 nM
- O=C(O)c1cnc(OCC(C2CCCCC2)n2c(-c3ccc(Cl)cc3)nc3cc(F)c(F)cc32)c(Cl)c1 (single isomer, unassigned; (+)) [Example 23, (+)-5-Chloro-6-{2-[2-(4-chloro-phenyl)-5,6-difluoro-benzoimidazol-1-yl]-2-cyclohexyl-ethoxy}-nicotinic acid] — 5-fold lower, 20 nM
- Fc1cc2nc(-c3ccc(Cl)cc3)n(C(COc3ccc(-c4nnn[nH]4)cn3)C3CCCCC3)c2cc1F (single isomer, unassigned; (-)) [Example 63, (−)-2-(4-Chloro-phenyl)-1-{1-cyclohexyl-2-[5-(1H-tetrazol-5-yl)-pyridin-2-yloxy]-ethyl}-5,6-difluoro-1H-benzoimidazole] — within 1.5-fold, 90 nM
- O=C(O)c1ccc(OCC(C2CCCCC2)n2c(-c3ccc(Cl)cc3)nc3cc(F)c(F)cc32)nc1 (stereo not shown) [Example 19, 6-{2-[2-(4-Chloro-phenyl)-5,6-difluoro-benzoimidazol-1-yl]-2-cyclohexyl-ethoxy}-nicotinic acid] — 2-fold lower, 50 nM
- O=C(O)COc1ccc(OCC(C2CCCCC2)n2c(-c3ccc(Cl)cc3)nc3cc(F)c(F)cc32)nc1 (stereo not shown) [Example 45, (6-{2-[2-(4-Chloro-phenyl)-5,6-difluoro-benzoimidazol-1-yl]-2-cyclohexyl-ethoxy}-pyridin-3-yloxy)-acetic acid] — 5-fold lower, 20 nM
- COc1ccc(-c2nc3cc(F)c(F)cc3n2C(COc2ccc(C(=O)O)cn2)C2CCCCC2)c(OC)n1 (single isomer, unassigned; (-)) [Example 75, (−)-6-{2-Cyclohexyl-2-[2-(2,6-dimethoxy-pyridin-3-yl)-5,6-difluoro-benzoimidazol-1-yl]-ethoxy}-nicotinic acid] — within 1.5-fold, 90 nM
- Cc1cc(-c2nnn[nH]2)cc(C)c1OCC(C1CCCCC1)n1c(-c2ccc(Cl)cc2)nc2ccccc21 (single isomer, unassigned; (+)) [Example 113, (+)-2-(4-Chloro-phenyl)-1-{1-cyclohexyl-2-[2,6-dimethyl-4-(1H-tetrazol-5-yl)-phenoxy]-ethyl}-1H-benzoimidazole] — 50-fold lower, 2 nM
- Fc1cc2nc(-c3ccc(Cl)cc3)n(C(COc3c(F)cc(-c4nnn[nH]4)cc3F)C3CCCCC3)c2cc1F (stereo not shown) [Example 127, 2-(4-Chloro-phenyl)-1-{1-cyclohexyl-2-[2,6-difluoro-4-(1H-tetrazol-5-yl)-phenoxy]-ethyl}-5,6-difluoro-1H-benzoimidazole] — 100-fold lower, 1 nM
- Fc1cc2nc(-c3ccc(Cl)cc3)n(C(COc3ccc(-c4nnn[nH]4)cn3)C3CCCCC3)c2cc1F (stereo not shown) [Example 56, 2-(4-Chloro-phenyl)-1-{1-cyclohexyl-2-[5-(1H-tetrazol-5-yl)-pyridin-2-yloxy]-ethyl}-5,6-difluoro-1H-benzoimidazole] — 2-fold lower, 50 nM
- O=C(O)c1cc(F)c(OCC(C2CCCCCC2)n2c(-c3ccc(Cl)cc3)nc3cc(F)c(F)cc32)c(F)c1 (stereo not shown) [Example 131, 4-{2-[2-(4-Chloro-phenyl)-5,6-difluoro-benzoimidazol-1-yl]-2-cycloheptyl-ethoxy}-3,5-difluoro-benzoic acid] — 5-fold lower, 20 nM
- O=C(O)c1cc(F)c(OCC(C2CCCCC2)n2c(-c3ccc(Cl)cc3)nc3ccccc32)c(Cl)c1 (stereo not shown) [Example 108, 3-Chloro-4-{2-[2-(4-chloro-phenyl)-benzoimidazol-1-yl]-2-cyclohexyl-ethoxy}-5-fluoro-benzoic acid] — 10-fold lower, 10 nM
- O=C(O)c1cnc(OCC(C2CCCCC2)n2c(-c3ccc(Cl)cc3)nc3cc(F)c(F)cc32)c2ccsc12 (stereo not shown) [Example 26, 4-{2-[2-(4-Chloro-phenyl)-5,6-difluoro-benzoimidazol-1-yl]-2-cyclohexyl-ethoxy}-thieno[3,2-c]pyridine-7-carboxylic acid] — 5-fold lower, 20 nM
- Cc1cc(-c2nnn[nH]2)cc(C)c1OCC(C1CCCCC1)n1c(-c2ccc(Cl)cc2)nc2cc(F)c(F)cc21 (stereo not shown) [Example 70, 2-(4-Chloro-phenyl)-1-{1-cyclohexyl-2-[2,6-dimethyl-4-(1H-tetrazol-5-yl)-phenoxy]-ethyl}-5,6-difluoro-1H-benzoimidazole] — 10-fold lower, 10 nM
- O=C(O)c1cc(F)c(OCC(C2CCCCC2)n2c(-c3ccc(Cl)cc3)nc3ccccc32)c(F)c1 (single isomer, unassigned; (+)) [Example 103, (+)-4-{2-[2-(4-Chloro-phenyl)-benzoimidazol-1-yl]-2-cyclohexyl-ethoxy}-3,5-difluoro-benzoic acid] — the same, 100 nM
- COc1cc(C(=O)O)ccc1COCC(C1CCCCC1)n1c(-c2ccc(Cl)cc2)nc2cc(F)c(F)cc21 (stereo not shown) [Example 60, 4-{2-[2-(4-Chloro-phenyl)-5,6-difluoro-benzoimidazol-1-yl]-2-cyclohexyl-ethoxymethyl}-3-methoxy-benzoic acid] — 5-fold higher, 500 nM
- O=C(O)C1(Oc2ccc(OCC(C3CCCCC3)n3c(-c4ccc(Cl)cc4)nc4cc(F)c(F)cc43)cc2)CCC1 (single isomer, unassigned; (-)) [Example 119, (−)-1-(4-{2-[2-(4-Chloro-phenyl)-5,6-difluoro-benzoimidazol-1-yl]-2-cyclohexyl-ethoxy}-phenoxy)-cyclobutanecarboxylic acid] — within 1.5-fold, 110 nM
- O=C(O)c1ccc(CCC(C2CCCCC2)n2c(-c3ccccc3)nc3cc(F)c(F)cc32)cc1 (single isomer, unassigned; (-)) [Example 143, (−)-4-[3-Cyclohexyl-3-(5,6-difluoro-2-phenyl-benzoimidazol-1-yl)-propyl]-benzoic acid] — 33-fold lower, 3 nM
- COc1ccc(-c2nc3cc(F)c(F)cc3n2C(COc2ccc(C(=O)O)cn2)C2CCCCC2)c(OC)n1 (single isomer, unassigned; (+)) [Example 74, (+)-6-{2-Cyclohexyl-2-[2-(2,6-dimethoxy-pyridin-3-yl)-5,6-difluoro-benzoimidazol-1-yl]-ethoxy}-nicotinic acid] — 5-fold higher, 500 nM
- Fc1cc2nc(-c3ccc(Cl)cc3)n(C(COc3ccc(-c4nnn[nH]4)cc3F)C3CCCCC3)c2cc1F (single isomer, unassigned; (+)) [Example 80, (+)-2-(4-Chloro-phenyl)-1-{1-cyclohexyl-2-[2-fluoro-4-(1H-tetrazol-5-yl)-phenoxy]-ethyl}-5,6-difluoro-1H-benzoimidazole] — 2-fold lower, 50 nM
- O=C(O)c1ccc(COCC(C2CCCCC2)n2c(-c3ccc(Cl)cc3)nc3cc(F)c(F)cc32)c(F)c1 (single isomer, unassigned; (+)) [Example 64, (+)-4-{2-[2-(4-Chloro-phenyl)-5,6-difluoro-benzoimidazol-yl]-2-cyclohexyl-ethoxymethyl}-3-fluoro-benzoic] — 3-fold higher, 300 nM
- O=C(O)c1cc(F)c(OCC(C2CCCCC2)n2c(-c3ccc(Cl)cc3)nc3ccccc32)c(Cl)c1 (single isomer, unassigned; (-)) [Example 109, (−)-3-Chloro-4-{2-[2-(4-chloro-phenyl)-benzoimidazol-1-yl]-2-cyclohexyl-ethoxy}-5-fluoro-benzoic acid] — 3.3-fold lower, 30 nM

Same assay, conditions: h-IC50 Binding, 40 nM GST-FXR LBD on SPA beads, test compound 6×10^−9 M to 2.5×10^−5 M

For `O=C(O)COc1ccc(OCC(C2CCCCC2)n2c(-c3ccc(Cl)cc3)nc3cc(F)c(F)cc32)cc1` (stereo not shown) [Example 91, (4-{2-[2-(4-Chloro-phenyl)-5,6-difluoro-benzoimidazol-1-yl]-2-cyclohexyl-ethoxy}-phenoxy)-acetic acid], the IC50 was 60 nM.
